In patent US20100120763A1, “IMIDAZO[5,1-C][1,2,4]BENZOTRIAZINE DERIVATIVES AS INHIBITORS OF PHOSPHODIESTERASES” (priority 2008, published 2010):

Assays:
[1] = biological target: T1, PDE2A (Homo sapiens, UniProt O00408); assay: Inhibition of recombinant PDE2A (expressed in baculovirus/SF21-cells), [3H]-cAMP SPA; type: biochemical
T1 construct: made in house; host or cells: SF21 insect cells (baculovirus)
Description: Inhibition of Recombinant PDE2A (Expressed in Baculovirus/SF21-Cells)
PDE2A (NM002599) was cloned and the gene was inserted in the baculovirus and the enzyme-protein expressed in SF21-cells. The enzyme was isolated from these cells by harvesting the cells by an centrifugation at 200 g to collect the cells. The cells were resuspended in 50 mM Tris-HCl/5 mM MgCl2 buffer (pH=7.4) (Sigma, Deisenhofen, Germany; Merck, Darmstadt, Germany) and lysed by a sonication of the cells (three times for 15 seconds, Labsonic U, Fa. Braun, Degersheim, Switzerland, level “high”). The membrane fraction of PDE2A was obtained by a centrifugation at 48 000 g for 1 h, resuspended in buffer and stored at −70° C.
PDE2A activity was determined in a one step procedure in microtiterplates. The reaction mixture of 100 μl contained 50 mM Tris-HCl/5 mM MgCl2 buffer (pH=7.4) (Sigma, Deisenhofen, Germany; Merck, Darmstadt, Germany), 0.5 μM [3H]-cAMP (Amersham, Buckinghamshire, UK), 1000 nM cGMP and the enzyme. Non-specific enzyme activity was tested in the absence of cGMP. The reaction was initiated by addition of the substrate solution and was carried out at 37° C. for 30 minutes. Enzymatic activity then was stopped by addition of 25 μl SPA-beads (Amersham-Pharmacia). One hour later the mixture was measured in a liquid scintillation counter for microtiterplates (Microbeta Trilux). For pipetting of the incubation mixture the robot Biomek (Fa. Beckman) was routinely used.
For determination of IC50 values the Hill-plot, 2-parameter-model, was used.

[2] = biological target: T2, PDE10A (Homo sapiens, UniProt Q9Y233); assay: Inhibition of recombinant PDE10A (baculovirus/SF21 system), [3H]-cAMP SPA; type: biochemical; conditions: recombinant PDE10A1, cytosolic; 0.1 μM [3H]-cAMP, 37° C., 30 minutes; read-out: PDE10A IC50
T2 construct: made in house; host or cells: SF21 insect cells (baculovirus)
T2 sequence (Q9Y233 1-779 isoform Q9Y233-1): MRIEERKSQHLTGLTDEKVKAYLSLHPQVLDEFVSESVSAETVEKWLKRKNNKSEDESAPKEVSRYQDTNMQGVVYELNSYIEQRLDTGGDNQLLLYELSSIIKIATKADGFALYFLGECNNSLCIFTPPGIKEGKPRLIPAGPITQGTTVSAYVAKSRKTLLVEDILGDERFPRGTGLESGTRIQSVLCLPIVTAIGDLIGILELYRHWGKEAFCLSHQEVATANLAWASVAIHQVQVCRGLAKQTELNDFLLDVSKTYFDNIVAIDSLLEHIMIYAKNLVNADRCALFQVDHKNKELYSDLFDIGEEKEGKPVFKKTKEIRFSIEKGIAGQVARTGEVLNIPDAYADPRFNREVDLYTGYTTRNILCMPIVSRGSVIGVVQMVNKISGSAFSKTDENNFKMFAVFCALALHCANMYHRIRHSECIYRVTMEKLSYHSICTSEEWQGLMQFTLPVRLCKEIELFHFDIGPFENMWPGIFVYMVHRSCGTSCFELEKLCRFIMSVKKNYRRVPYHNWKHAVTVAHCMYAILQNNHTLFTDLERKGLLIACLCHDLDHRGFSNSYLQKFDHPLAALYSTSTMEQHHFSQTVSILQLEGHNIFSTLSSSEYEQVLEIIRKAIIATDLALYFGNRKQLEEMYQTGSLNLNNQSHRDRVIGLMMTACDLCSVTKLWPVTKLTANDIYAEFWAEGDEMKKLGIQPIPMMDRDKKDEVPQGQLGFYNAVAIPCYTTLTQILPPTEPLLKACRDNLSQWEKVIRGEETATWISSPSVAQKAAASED
Description: Inhibition of Recombinant PDE10A (Baculovirus/SF21 System)
The gene was than inserted into a baculovirus vector, ligated with the baculovirus DNA. The enzyme-protein was expressed in SF21-cells. The enzyme was isolated from these cells by harvesting the cells by an centrifugation at 500 g to collect the cells.
The cells were resuspended in 50 mM Tris-HCl/1 mM EDTA/250 mM Sucrose buffer, pH=7.4 (Sigma, Deisenhofen, Germany; Merck, Darmstadt, Germany) and lysed by sonification of the cells (three times for 15 seconds, Labsonic U, Fa. Braun, Degersheim, Switzerland, level “high”). The cytosolic PDE10A was obtained by a centrifugation at 48,000 g for 1 h in the supernatant and stored at −70° C.
PDE activity was determined in a one step procedure in microtiter plates. The reaction mixture of 100 μl contained 50 mM Tris-HCl/5 mM MgCl2 buffer (pH=7.4, Sigma, Deisenhofen, Germany; Merck, Darmstadt, Germany) 0.1 μM [3H]-cAMP (Amersham, Buckinghamshire, UK) and the enzyme. Non-specific enzyme activity was determined without the enzyme. The reaction was initiated by addition of the substrate solution and was carried out at 37° C. for 30 minutes. Enzymatic activity then was stopped by addition of 25 μl Ysi-SPA-beads (Amersham-Pharmacia). One hour later the mixture was measured in a liquid scintillation counter for microtiter plates (Microbeta Trilux). The Biomek 2000 (Beckman) was used routinely for pipetting of the incubation mixture. […] For determination of IC50 values the Hill-plot, 2-parameter-model, was used.

T1 sequence (O00408 whole entry): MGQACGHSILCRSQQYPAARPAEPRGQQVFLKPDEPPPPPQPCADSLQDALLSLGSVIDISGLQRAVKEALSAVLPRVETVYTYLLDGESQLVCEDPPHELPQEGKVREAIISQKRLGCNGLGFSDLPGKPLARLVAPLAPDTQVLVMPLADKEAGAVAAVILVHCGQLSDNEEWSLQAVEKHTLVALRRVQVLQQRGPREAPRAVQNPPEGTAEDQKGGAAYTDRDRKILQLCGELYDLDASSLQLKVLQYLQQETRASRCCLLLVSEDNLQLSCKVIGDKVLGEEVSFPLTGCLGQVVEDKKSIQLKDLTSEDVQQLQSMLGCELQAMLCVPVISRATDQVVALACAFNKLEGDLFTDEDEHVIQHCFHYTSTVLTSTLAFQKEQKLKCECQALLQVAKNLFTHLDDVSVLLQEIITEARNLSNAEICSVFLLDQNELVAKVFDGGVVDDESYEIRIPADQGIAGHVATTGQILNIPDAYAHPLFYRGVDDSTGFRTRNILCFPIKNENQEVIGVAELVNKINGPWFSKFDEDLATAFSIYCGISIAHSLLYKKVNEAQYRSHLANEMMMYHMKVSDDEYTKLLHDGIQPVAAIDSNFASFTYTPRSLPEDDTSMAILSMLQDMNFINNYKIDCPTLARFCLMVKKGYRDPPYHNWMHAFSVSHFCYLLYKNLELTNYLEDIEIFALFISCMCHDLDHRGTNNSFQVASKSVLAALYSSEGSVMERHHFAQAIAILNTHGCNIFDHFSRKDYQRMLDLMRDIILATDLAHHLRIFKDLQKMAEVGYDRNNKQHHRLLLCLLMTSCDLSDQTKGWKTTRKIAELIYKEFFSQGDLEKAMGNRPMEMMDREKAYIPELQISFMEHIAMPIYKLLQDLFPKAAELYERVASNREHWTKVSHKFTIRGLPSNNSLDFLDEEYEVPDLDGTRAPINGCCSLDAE

IC50 [1]	IC50 [2]	SMILES
37.3 nM	55.2 nM	COc1cc(F)c2nnc3c(C)nc(-c4c(C)nn(C)c4C)n3c2c1 [Example 85, 6-fluoro-8-methoxy-3-methyl-1-(1,3,5-trimethyl-1H-pyrazol-4-yl)imidazo[5,1-c][1,2,4]benzotriazine]
> 1000 nM	57 nM	COc1cc(C(F)(F)F)cc2c1nnc1c(C)nc(-c3ccoc3)n12 [Example 143, 1-(Furan-3-yl)-6-methoxy-3-methyl-8-(trifluoromethyl)benzo[e]imidazo[5,1-c][1,2,4]triazine]
105 nM	3.05 nM	COc1cc(O)cc2c1nnc1c(C)nc(-c3ccncc3C)n12 [Example 152, 6-methoxy-3-methyl-1-(3-methylpyridin-4-yl)benzo[e]imidazo[5,1-c][1,2,4]triazin-8-ol]
3.32 nM	8.51 nM	COc1ccc(Cl)c(-c2nc(C)c3nnc4c(F)cc(OC)cc4n23)c1 [Example 78, 1-(2-chloro-5-methoxyphenyl)-6-fluoro-8-methoxy-3-methylimidazo[5,1-c][1,2,4]benzotriazine]
14.2 nM	7.99 nM	COc1cc(F)c2nnc3c(C)nc(-c4cc(Cl)ccc4F)n3c2c1 [Example 88, 1-(5-chloro-2-fluorophenyl)-6-fluoro-8-methoxy-3-methylimidazo[5,1-c][1,2,4]benzotriazine]
134 nM	38.5 nM	COc1cc(F)c2nnc3c(C)nc(-c4ccc(C)cc4F)n3c2c1 [Example 74, 6-fluoro-1-(2-fluoro-4-methylphenyl)-8-methoxy-3-methylimidazo[5,1-c][1,2,4]benzotriazine]
312 nM	252 nM	COc1cc(F)c2nnc3c(C)nc(-c4ccc(F)nc4C)n3c2c1 [Example 93, 6-fluoro-1-(6-fluoro-2-methylpyridin-3-yl)-8-methoxy-3-methylimidazo[5,1-c][1,2,4]benzotriazine]
171 nM	5.37 nM	COc1cc(F)cc2c1nnc1c(C)nc(-c3cc(Cl)ccc3C)n12 [Example 104, 1-(5-chloro-2-methylphenyl)-8-fluoro-6-methoxy-3-methylimidazo[5,1-c][1,2,4]benzotriazine]
109 nM	64.2 nM	COc1cc(F)c2nnc3c(C)nc(-c4cc(Cl)ccc4OC)n3c2c1 [Example 68, 1-(5-chloro-2-methoxyphenyl)-6-fluoro-8-methoxy-3-methylimidazo[5,1-c][1,2,4]benzotriazine]
9.43 nM	7.09 nM	COc1cc(F)c2nnc3c(C)nc(-c4cc(F)ccc4Cl)n3c2c1 [Example 80, 1-(2-chloro-5-fluorophenyl)-6-fluoro-8-methoxy-3-methylimidazo[5,1-c][1,2,4]benzotriazine]
277 nM	5.32 nM	COc1cc(OCc2ccccc2)cc2c1nnc1c(C)nc(-c3cnccc3C)n12 [Example 157, 8-(benzyloxy)-6-methoxy-3-methyl-1-(4-methylpyridin-3-yl)imidazo[5,1-c][1,2,4]benzotriazine]
2.3 nM	24.3 nM	Cc1nc(-c2cc(Cl)ccc2Cl)n2c1nnc1ccc(N3CCOCC3)cc12 [Example 181, 1-(2,5-Dichloro-phenyl)-3-methyl-8-morpholin-4-yl-imidazo[5,1-c][1,2,4]benzotriazine]
210 nM	0.7 nM	COc1cc(OC)c2nnc3c(C)nc(-c4c(C)n[nH]c4C)n3c2c1 [Example 51, 1-(3,5-dimethyl-1H-pyrazol-4-yl)-6,8-dimethoxy-3-methylimidazo[5,1-c][1,2,4]benzotriazine]
> 10000 nM	53.6 nM	COc1cc(F)cc2c1nnc1c(C)nc(-c3ccc(F)nc3C)n12 [Example 120, 8-fluoro-1-(6-fluoro-2-methylpyridin-3-yl)-6-methoxy-3-methylimidazo[5,1-c][1,2,4]benzotriazine]
16.5 nM	65.7 nM	COc1cc(F)c2nnc3c(C)nc(-c4cc(OC(F)(F)F)ccc4Cl)n3c2c1 [Example 83, 1-[2-chloro-5-(trifluoromethoxy)phenyl]-6-fluoro-8-methoxy-3-methylimidazo[5,1-c][1,2,4]benzotriazine]
127 nM	122 nM	COc1cc(F)c2nnc3c(C)nc(-c4cccnc4F)n3c2c1 [Example 94, 6-fluoro-1-(2-fluoropyridin-3-yl)-8-methoxy-3-methylimidazo[5,1-c][1,2,4]benzotriazine]
50.4 nM	0.85 nM	COc1cc(N2CCOCC2)cc2c1nnc1c(C)nc(-c3ccccc3Cl)n12 [Example 65, 1-(2-chlorophenyl)-6-methoxy-3-methyl-8-morpholin-4-ylimidazo[5,1-c][1,2,4]benzotriazine]
435 nM	4.72 nM	COc1cc(F)cc2c1nnc1c(C)nc(-c3cc(F)ccc3C)n12 [Example 103, 8-fluoro-1-(5-fluoro-2-methylphenyl)-6-methoxy-3-methylimidazo[5,1-c][1,2,4]benzotriazine]
819 nM	623 nM	COc1cc(F)c2nnc3c(C)nc(-c4c(C)noc4C)n3c2c1 [Example 89, 1-(3,5-dimethylisoxazol-4-yl)-6-fluoro-8-methoxy-3-methylimidazo[5,1-c][1,2,4]benzotriazine]
585 nM	386 nM	COc1cc(F)c2nnc3c(C)nc(-c4cccnc4)n3c2c1 [Example 90, 6-fluoro-8-methoxy-3-methyl-1-pyridin-3-ylimidazo[5,1-c][1,2,4]benzotriazine]
636 nM	1.88 nM	COc1cc(F)cc2c1nnc1c(C)nc(-c3ccc(C)cc3Cl)n12 [Example 112, 1-(2-chloro-4-methylphenyl)-8-fluoro-6-methoxy-3-methylimidazo[5,1-c][1,2,4]benzotriazine]
3390 nM	8.33 nM	COc1cc(F)c2nnc3c(C)nc(-c4ccccc4OC)n3c2c1 [Example 86, 6-fluoro-8-methoxy-1-(2-methoxyphenyl)-3-methylimidazo[5,1-c][1,2,4]benzotriazine]
55.5 nM	34.7 nM	COc1cc(F)c2nnc3c(C)nc(-c4ccc(F)cc4C)n3c2c1 [Example 69, 6-fluoro-1-(4-fluoro-2-methylphenyl)-8-methoxy-3-methylimidazo[5,1-c][1,2,4]benzotriazine]
1430 nM	13 nM	COc1cc(F)cc2c1nnc1c(C)nc(-c3c(C)n[nH]c3C)n12 [Example 124, 1-(3,5-dimethyl-1H-pyrazol-4-yl)-8-fluoro-6-methoxy-3-methylimidazo[5,1-c][1,2,4]benzotriazine]
442 nM	8.34 nM	COc1cccc2c1nnc1c(C)nc(-c3ccncc3C)n12 [Example 62, 6-methoxy-3-methyl-1-(3-methylpyridin-4-yl)imidazo[5,1-c][1,2,4]benzotriazine]
258 nM	43 nM	COc1cc(F)cc2c1nnc1c(C)nc(-c3cc(C(F)(F)F)ccc3Cl)n12 [Example 101, 1-[2-chloro-5-(trifluoromethyl)phenyl]-8-fluoro-6-methoxy-3-methylimidazo[5,1-c][1,2,4]benzotriazine]
6.9 nM	49.5 nM	Cc1nc(-c2cc(Cl)ccc2Cl)n2c1nnc1ccc(N3CCCCC3)cc12 [Example 180, 1-(2,5-Dichloro-phenyl)-3-methyl-8-piperidin-1-yl-imidazo[5,1-c][1,2,4]benzotriazine]
> 5000 nM	102 nM	COc1cc(F)cc2c1nnc1c(C)nc(-c3cccnc3)n12 [Example 109, 8-fluoro-6-methoxy-3-methyl-1-pyridin-3-ylimidazo[5,1-c][1,2,4]benzotriazine]
15.1 nM	18.9 nM	COc1cc(F)c2nnc3c(C)nc(-c4cc(F)ccc4C)n3c2c1 [Example 73, 6-fluoro-1-(5-fluoro-2-methylphenyl)-8-methoxy-3-methylimidazo[5,1-c][1,2,4]benzotriazine]
